Data published in ChEMBL document CHEMBL2440076, “New triarylpyrazoles as broad-spectrum anticancer agents: design, synthesis, and biological evaluation” (Eur J Med Chem, 2013).

Columns and labels:
Type in all cases: functional
OVCAR-8 [1] = experiment: Growth inhibition of human OVCAR8 cells assessed as cell growth at 5X10'-6 M after 48 hrs by sulforhodamine B assay; settings: OVCAR-8, 48 h, read-out: Activity
OVCAR-5 [2] = experiment: Growth inhibition of human OVCAR5 cells assessed as cell growth at 5X10'-5 M after 48 hrs by sulforhodamine B assay; settings: OVCAR-5, 48 h, read-out: Activity
SF-268 = experiment: Growth inhibition of human SF268 cells assessed as cell growth at 5X10'-6 M after 48 hrs by sulforhodamine B assay; settings: SF-268, 48 h, read-out: Activity
RXF 393 = experiment: Growth inhibition of human RXF393 cells assessed as cell growth at 5X10'-6 M after 48 hrs by sulforhodamine B assay; settings: RXF 393, 48 h, read-out: Activity
CCRF-CEM = experiment: Growth inhibition of human CCRF-CEM cells assessed as cell growth at 5X10'-9 M after 48 hrs by sulforhodamine B assay; settings: read-out: Activity
HT-29 = experiment: Growth inhibition of human HT-29 cells assessed as cell growth at 5X10'-9 M after 48 hrs by sulforhodamine B assay; settings: HT-29, 48 h, read-out: Activity
K562 [3] = experiment: Growth inhibition of human K562 cells assessed as cell growth at 5X10'-7 M after 48 hrs by sulforhodamine B assay; settings: K562, 48 h, read-out: Activity
MCF7 = experiment: Growth inhibition of human MCF7 cells assessed as cell growth at 5X10'-7 M after 48 hrs by sulforhodamine B assay; settings: MCF7, 48 h, read-out: Activity
MOLT-4 [4] = experiment: Growth inhibition of human MOLT4 cells assessed as cell growth at 5X10'-6 M after 48 hrs by sulforhodamine B assay; settings: MOLT-4, 48 h, read-out: Activity
MDA-MB-468 = experiment: Growth inhibition of human MDA-MB-468 cells assessed as cell growth at 5X10'-6 M after 48 hrs by sulforhodamine B assay; settings: MDA-MB-468, 48 h, read-out: Activity
[5] = Growth inhibition of human HCC2998 cells assessed as cell growth at 5X10'-9 M after 48 hrs by sulforhodamine B assay; settings: HCC 2998, 48 h, read-out: Activity
OVCAR-8 [6] = experiment: Growth inhibition of human OVCAR8 cells assessed as cell growth at 5X10'-9 M after 48 hrs by sulforhodamine B assay; settings: OVCAR-8, 48 h, read-out: Activity
ACHN = experiment: Growth inhibition of human ACHN cells assessed as cell growth at 5X10'-6 M after 48 hrs by sulforhodamine B assay; settings: read-out: Activity
UO-31 = experiment: Growth inhibition of human UO31 cells assessed as cell growth at 5X10'-5 M after 48 hrs by sulforhodamine B assay; settings: UO-31, 48 h, read-out: Activity
NCI-H23 [7] = experiment: Growth inhibition of human NCI-H23 cells assessed as cell growth at 5X10'-5 M after 48 hrs by sulforhodamine B assay; settings: NCI-H23, 48 h, read-out: Activity
MDA-MB-231 = experiment: Growth inhibition of human MDA-MB-231 cells assessed as cell growth at 5X10'-8 M after 48 hrs by sulforhodamine B assay; settings: MDA-MB-231, 48 h, read-out: Activity
MOLT-4 [8] = experiment: Growth inhibition of human MOLT4 cells assessed as cell growth at 5X10'-9 M after 48 hrs by sulforhodamine B assay; settings: MOLT-4, 48 h, read-out: Activity
K562 [9] = experiment: Growth inhibition of human K562 cells assessed as cell growth at 5X10'-5 M after 48 hrs by sulforhodamine B assay; settings: K562, 48 h, read-out: Activity
LOX IMVI [10] = experiment: Growth inhibition of human LOXIMVI cells assessed as cell growth at 5X10'-7 M after 48 hrs by sulforhodamine B assay; settings: read-out: Activity
NCI-H23 [11] = experiment: Growth inhibition of human NCI-H23 cells assessed as cell growth at 5X10'-9 M after 48 hrs by sulforhodamine B assay; settings: NCI-H23, 48 h, read-out: Activity
CAKI-1 = experiment: Growth inhibition of human CAKI-1 cells assessed as cell growth at 5X10'-6 M after 48 hrs by sulforhodamine B assay; settings: CAKI-1, 48 h, read-out: Activity
LOX IMVI [12] = experiment: Growth inhibition of human LOXIMVI cells assessed as cell growth at 5X10'-8 M after 48 hrs by sulforhodamine B assay; settings: read-out: Activity
SK-OV-3 = experiment: Growth inhibition of human SKOV3 cells assessed as cell growth at 5X10'-9 M after 48 hrs by sulforhodamine B assay; settings: SK-OV-3, 48 h, read-out: Activity
UACC-257 [13] = experiment: Growth inhibition of human UACC257 cells assessed as cell growth at 5X10'-6 M after 48 hrs by sulforhodamine B assay; settings: UACC-257, 48 h, read-out: Activity
SK-MEL-28 = experiment: Growth inhibition of human SK-MEL-28 cells assessed as cell growth at 5X10'-7 M after 48 hrs by sulforhodamine B assay; settings: SK-MEL-28, 48 h, read-out: Activity
RPMI-8226 = experiment: Growth inhibition of human RPMI8226 cells assessed as cell growth at 5X10'-9 M after 48 hrs by sulforhodamine B assay; settings: RPMI-8226, 48 h, read-out: Activity
SK-MEL-2 [14] = experiment: Growth inhibition of human SK-MEL-2 cells assessed as cell growth at 5X10'-5 M after 48 hrs by sulforhodamine B assay; settings: SK-MEL-2, 48 h, read-out: Activity
SK-MEL-2 [15] = experiment: Growth inhibition of human SK-MEL-2 cells assessed as cell growth at 5X10'-6 M after 48 hrs by sulforhodamine B assay; settings: SK-MEL-2, 48 h, read-out: Activity
SNB-75 = experiment: Growth inhibition of human SNB75 cells assessed as cell growth at 5X10'-7 M after 48 hrs by sulforhodamine B assay; settings: SNB-75, 48 h, read-out: Activity
OVCAR-5 [16] = experiment: Growth inhibition of human OVCAR5 cells assessed as cell growth at 5X10'-9 M after 48 hrs by sulforhodamine B assay; settings: OVCAR-5, 48 h, read-out: Activity
[17] = Growth inhibition of human Hs 578T cells assessed as cell growth at 5X10'-7 M after 48 hrs by sulforhodamine B assay; settings: read-out: Activity
UACC-257 [18] = experiment: Growth inhibition of human UACC257 cells assessed as cell growth at 5X10'-9 M after 48 hrs by sulforhodamine B assay; settings: UACC-257, 48 h, read-out: Activity
SF-539 = experiment: Growth inhibition of human SF539 cells assessed as cell growth at 5X10'-9 M after 48 hrs by sulforhodamine B assay; settings: SF-539, 48 h, read-out: Activity
IGROV-1 = experiment: Growth inhibition of human IGROV1 cells assessed as cell growth at 5X10'-6 M after 48 hrs by sulforhodamine B assay; settings: IGROV-1, 48 h, read-out: Activity
SNB-19 = experiment: Growth inhibition of human SNB19 cells assessed as cell growth at 5X10'-9 M after 48 hrs by sulforhodamine B assay; settings: SNB-19, 48 h, read-out: Activity
OVCAR-5 [19] = experiment: Growth inhibition of human OVCAR5 cells assessed as cell growth at 5X10'-6 M after 48 hrs by sulforhodamine B assay; settings: OVCAR-5, 48 h, read-out: Activity
NCI-H322M = experiment: Growth inhibition of human NCI-H322M cells assessed as cell growth at 5X10'-7 M after 48 hrs by sulforhodamine B assay; settings: read-out: Activity

SMILES | growth at 5 µM (OVCAR-8 [1]) [%] | growth at 50 µM (OVCAR-5 [2]) [%] | growth at 5 µM (SF-268) [%] | growth at 5 µM (RXF 393) [%] | growth at 0.005 µM (CCRF-CEM) [%] | growth at 0.005 µM (HT-29) [%] | growth at 0.5 µM (K562 [3]) [%] | growth at 0.5 µM (MCF7) [%] | growth at 5 µM (MOLT-4 [4]) [%] | growth at 5 µM (MDA-MB-468) [%] | growth at 0.005 µM [5] [%] | growth at 0.005 µM (OVCAR-8 [6]) [%] | growth at 5 µM (ACHN) [%] | growth at 50 µM (UO-31) [%] | growth at 50 µM (NCI-H23 [7]) [%] | growth at 0.05 µM (MDA-MB-231) [%] | growth at 0.005 µM (MOLT-4 [8]) [%] | growth at 50 µM (K562 [9]) [%] | growth at 0.5 µM (LOX IMVI [10]) [%] | growth at 0.005 µM (NCI-H23 [11]) [%] | other results
O=C(Nc1cccc(-n2cc(-c3ccncc3)c(-c3ccc(Cl)c(O)c3)n2)c1)c1ccc(N2CCOCC2)c(C(F)(F)F)c1 | 41 | 71 | 51 | -18 | 98 | 101 | 103 | 78 | 32 | 63 | 95 | 101 | 25 | -5 | -13 | 93 | 99 | 3 | 92 | 93 | growth at 5 µM (CAKI-1): 34%; growth at 0.05 µM (LOX IMVI [12]): 96%; growth at 0.005 µM (SK-OV-3): 95%; growth at 5 µM (UACC-257 [13]): 57%; growth at 0.5 µM (SK-MEL-28): 91%; growth at 0.005 µM (RPMI-8226): 98%; growth at 50 µM (SK-MEL-2 [14]): -36%; growth at 5 µM (SK-MEL-2 [15]): 34%; growth at 0.5 µM (SNB-75): 72%; growth at 0.005 µM (OVCAR-5 [16]): 98%; growth at 0.5 µM [17]: 84%; growth at 0.005 µM (UACC-257 [18]): 100%; growth at 0.005 µM (SF-539): 92%; growth at 5 µM (IGROV-1): 68%; growth at 0.005 µM (SNB-19): 97%; growth at 5 µM (OVCAR-5 [19]): 111%; growth at 0.5 µM (NCI-H322M): 114%
O=C(Nc1cccc(-n2cc(-c3ccncc3)c(-c3ccc(Cl)c(O)c3)n2)c1)Nc1cc(C(F)(F)F)cc(C(F)(F)F)c1 | 4 | -89 | -27 | -36 | 95 | 110 | 46 | 52 | -5 | -14 | 99 | 101 | 2 | -86 | -75 | 92 | 106 | -26 | 76 | 98 | growth at 5 µM (CAKI-1): -4%; growth at 0.05 µM (LOX IMVI [12]): 100%; growth at 0.005 µM (SK-OV-3): 103%; growth at 5 µM (UACC-257 [13]): -35%; growth at 0.5 µM (SK-MEL-28): 84%; growth at 0.005 µM (RPMI-8226): 97%; growth at 50 µM (SK-MEL-2 [14]): -77%; growth at 5 µM (SK-MEL-2 [15]): -28%; growth at 0.5 µM (SNB-75): 81%; growth at 0.005 µM (OVCAR-5 [16]): 96%; growth at 0.5 µM [17]: 82%; growth at 0.005 µM (UACC-257 [18]): 94%; growth at 0.005 µM (SF-539): 98%; growth at 5 µM (IGROV-1): -12%; growth at 0.005 µM (SNB-19): 90%; growth at 5 µM (OVCAR-5 [19]): -54%; growth at 0.5 µM (NCI-H322M): 84%
COc1cc(-c2nn(-c3cccc(NC(=O)Nc4cccc(C(F)(F)F)c4)c3)cc2-c2ccncc2)ccc1Cl | -24 | -43 | 1 | -52 | 104 | 99 | 53 | 60 | -14 | -33 | 100 | 99 | -8 | -35 | -37 | 99 | 94 | 1 | 81 | 96 | growth at 5 µM (CAKI-1): -14%; growth at 0.05 µM (LOX IMVI [12]): 95%; growth at 0.005 µM (SK-OV-3): 100%; growth at 5 µM (UACC-257 [13]): -42%; growth at 0.5 µM (SK-MEL-28): 87%; growth at 0.005 µM (RPMI-8226): 98%; growth at 50 µM (SK-MEL-2 [14]): -85%; growth at 5 µM (SK-MEL-2 [15]): -67%; growth at 0.5 µM (SNB-75): 81%; growth at 0.005 µM (OVCAR-5 [16]): 84%; growth at 0.5 µM [17]: 80%; growth at 0.005 µM (UACC-257 [18]): 96%; growth at 0.005 µM (SF-539): 95%; growth at 5 µM (IGROV-1): -22%; growth at 0.005 µM (SNB-19): 96%; growth at 5 µM (OVCAR-5 [19]): 5%; growth at 0.5 µM (NCI-H322M): 82%
